Series [1] concerns cancer cell lines. The experiment in a line: IC50 across a wide set of cancer cell lines. The series is classed as cell-based. How it is done: (§1) Cells (10^4) were seeded into 96-well plates and then treated with NUC-7738 (lot 5132/E00393/119) or 3′-dA (cordycepin, catalog no. C3394, lot 067M4182, Sigma) for 48 hours. One and a half milligrams per milliliter MTT (catalog no. M6494, Invitrogen) in a 1:1 ratio was added to cell culture media. After a 2-hour incubation at 37°C, media was removed and 70 μl of isopropanol was added. Optical densities at 570 nm were measured using POLARstar Omega plate reader. Readouts were normalized and IC50 values were calculated using a nonlinear regression model in Graphpad prism (v8.3.0). Each biological replicate (at least 3) was performed in 4 technical replicates to calculate the average IC50 value. To measure apoptosis, the Guava NexinReagent (Luminex Corp.) was used following manufacturer's instructions. Fluorescence staining was measured with an automated 96-well Guava easyCyte Flow Cytometer (Luminex Corp.).

The subject of series [2] is HAP1 cells. Nature of the series: HAP1 viability with ADA, hENT1 or ADK inhibitors. It is filed as cell-based, human. As to conditions: HAP1, EHNA, NBTI, A134974. As for the experimental part: as §1
To assess whether NUC-7738 was resistant to ADA and could bypass ADK and hENT1 (SLC29A1), cell viability was measured after treatment with their specific and corresponding protein inhibitors: erythro-9-(2-Hydroxy-3-nonyl) adenine hydrochloride (EHNA), A134974, and S-(4-nitrobenzyl)-6-thioinosine (NBTI), respectively ([16, 17, 34, 35]).

For series [3], the system named is NF-κB. Nature of the series: NF-κB SEAP reporter and p65 fractionation in THP-1 cells. It is filed as cell-based. As for the experimental part:
Cells were harvested and lyzed using RIPA lysis and extraction buffer (Thermo Scientific) following manufacturer's protocol. Twenty to 30 μg of total protein lysates was loaded on Mini-PROTEAN TGX precast gels (Bio-Rad). Separated proteins were transferred to a polyvinylidene difluoride (PVDF) membrane using Trans-Blot Turbo Transfer System (Bio-Rad) followed by incubation with primary and horseradish peroxidase (HRP)–conjugated secondary antibodies [anti-mouse, catalog no. 7076S, Cell Signaling Technology (CST) or anti-rabbit, catalog no. 7074S, CST] and ECL Prime Western blotting (GE Healthcare) detection. For fractionation, cells were grown in 10-cm tissue culture plates and treated with 30 or 60 μmol/L of 3′-dA or NUC-7738 for 6 hours. Cells were grown in 10-cm tissue culture plates and fractionated using the Nuclear Extraction Kit (Abcam) following manufacturer's instructions. Twenty-five micrograms of each fraction was used for Western blot (WB) detection. NF-κB p65 antibody (catalog no. 8242, CST), nuclear marker Lamin B1 (catalog no. ab16048, Abcam), cytosolic GAPDH (catalog no. 97166, CST), cleaved PARP (catalog no. 9541, CST), and Actin (MAB1501, Merck) were used.
Figure 5. […] C, NF-κB activity was measured using the SEAP reporter gene assay in THP-1 cells. […] SEAP production as result of NF-κB activity was measured using the QuantiBlue colorimetric enzyme assay. […]

The nature of series [4]: NuTide:701 first-in-human phase I study. The series is classed as in vivo. As for the experimental part: A Safety Study of NUC-7738 in Patients with Advanced Solid Tumours or Lymphoma, ClinicalTrials number: NCT03829254. Approved by Oxford C Ethics Committee ref 18/SC/0628.
This study is currently ongoing at three centers in the United Kingdom: Edinburgh, Newcastle, and Oxford. As of June 1, 2021, 28 patients with advanced cancers have been enrolled and received escalating doses of 14–900 mg/m^2 (intravenous infusion from 30–120 minutes) once weekly until dose-limiting toxicity or disease progression occurs. Intrapatient dose escalation ensures those starting at lower dose levels of NUC-7738 are continuously moved to higher doses once safety has been established. The most common cancers to be included are immunotherapy-resistant melanoma (n = 8), colorectal cancer (n = 3), and gastric and lung cancer (n = 2 each). […] A posttreatment biopsy was taken from a patient with melanoma and compared with their archived specimen collected prior to enrolling in the clinical trial. […] Transcriptional profiling of the specimens using RNA-seq identified more than 1,069 genes which were at least 2-fold differentially expressed after treatment with NUC-7738 (Fig. 6C and Supplementary Fig. S6A–C).

In series [5] the test system is renal cancer cell lines. The experiment in a line: siRNA HINT1 knockdown in renal cancer cell lines. The series is classed as cell-based. How it is done:
Cells were transfected with stealth siRNA (catalog no. HSS104782, catalog no. HSS104784, catalog no. HSS179235; ThermoFisher) targeting HINT-1 using Lipofectamine RNAiMAX (Invitrogen) following the manufacturer's protocol. At 48 hours posttransfection, cells were treated and cell viability was measured 96 hours posttransfection as described above. Samples for Western blot analysis were harvested 48 hours posttransfection. For gene-depletion experiments, approximately 4 × 10^5 HAP1 cells were seeded per well in a 6-well plate and grown to approximately 50% confluency. After 24 hours, cells were transfected with lentiCRISPR v2 plasmid (GenScript) containing a guide RNA (gRNA) targeting gene of interest using Turbofectin (catalog no. TF81001, OriGene) according to manufacturer's instruction. The following sequences were used: HINT-1 CRISPR gRNA 2 ([…]) and NUDT2 CRISPR gRNA 2 ([…]). At 24 hours posttransfection, positively transfected cells were selected using […] puromycin for 72 hours. After selection, surviving colonies were expanded and used for downstream analysis. For clonal selection, clones were selected using limited dilution and expanded into a 6-well plate for Western blot screening.

Details of series [6]: method as in PMID 22833171, PMID 24419340. The settings on record: rat serum; cited from earlier work.

Read-outs that look alike come from different tables or passages of the source.

With `C[C@H](NP(=O)(OC[C@@H]1C[C@@H](O)[C@H](n2cnc3c(N)ncnc32)O1)Oc1ccccc1)C(=O)OCc1ccccc1` (stereo partly drawn) [NUC-7738, 3′-deoxyadenosine-5′-O-phenyl-(benzyloxy-L-alaninyl)-phosphate], the values for the IC50 in series [1] (read-out: IC50 in the low μM range) and in series [1] (read-out: mean IC50) were < 10 µM and 18.8 µM, respectively. In series [2], the “potency upon inhibition of ADA, hENT1 or ADK” value is recorded as “mostly unaffected”. Besides, the “nuclear translocation of NF-κB” value in series [3] (NF-κB THP1 reporter cell line, LPS, fractionation and Western blot) is “a reduction in the nuclear translocation of NF-κB”. Further, the NF-κB activation result in series [3] (THP-1 SEAP reporter, LPS induced) is “significantly reduced NF-κB activation”. In series [4] (patients with advanced cancers, 14–900 mg/m^2 iv once weekly), the tolerability result was “well tolerated with no dose-limiting toxicities reported”. Moreover, in series [4] (patients, escalating doses), the “plasma PK profile” value was “dose-proportional increase in Cmax and AUC”. The “sensitivity after HINT1 depletion to minimal residual levels” value in series [5] is reported as “no difference in sensitivity”. For the same compound, the half-life in serum entry in series [6] is reported as “less than 2 minutes”.

(Values after article PMC9401491, “The Novel Nucleoside Analogue ProTide NUC-7738 Overcomes Cancer Resistance Mechanisms In Vitro and in a First-In-Human Phase I Clinical Trial” (Clinical Cancer Research, 2021).)
